Measured values reported in patent US8399672B2, “Compound having affinity for amyloid” (Nihon Medi-Physics Co., Ltd., priority 2007, dated 2013).

Tests used:
[1] = reported in WO03/106439; cited from earlier work
[2] = normal mice, [125I]-labeled, cited from earlier work; for Transfer into brain: 2 minutes after administration
[3] = Measurement of partition coefficient based on the octanol extraction method (log Poctanol); assay type: physicochemical; settings: octanol / 10 mmol/L phosphate buffer (pH 7.4); for logD: read-out: logPoctanol value
Method: Partition coefficients based on the octanol extraction method (hereinafter referred to as log Poctanol) were measured, which are generally known as an indicator of permeability of compounds through the blood-brain barrier (hereinafter referred to as BBB).
Each diethyl ether solution of Compound 1 (Example 15), Compound 2 (Example 16), Compound 3 (Example 17), Compound 4 (Example 18) and [^123I]-IMPY (Comparative Example 1) was each diluted with 10 mg/mL ascorbic acid-containing physiological saline solution, and adjusted to a radioactive concentration of 20-30 MBq/mL. To 2 mL of octanol, 10 μL each of the solutions was added, and 2 mL of 10 mmol/L phosphate buffer (pH 7.4) was added, followed by stirring for 30 seconds. After each mixture was centrifuged (2000 rpm×60 min.) with a low-speed centrifuge (type: CTD4, manufactured by Hitachi Koki, Co., Ltd.), the octanol layer and the water layer were sampled each in an amount of 1 mL, and subjected to measurement of radioactivity count with an autowell gamma system (Type: ARC-301B, manufactured by Aloka). Using the obtained radioactivity count, log Poctanol was calculated in accordance with the equation (1).

[4] = Measurement of transferability into brain and clearance (radioactive accumulation in brain after intravenous injection); assay type: in vivo, male Wistar rats; settings: rats; for Radioactive accumulation in brain two minutes after the injection (in words): 2 min; for Radioactive accumulation per unit weight of brain, after 2 min.: 2 min after injection; for Radioactive accumulation per unit weight of brain, after 5 min.: 5 min after injection; for Radioactive accumulation per unit weight of brain, after 30 min.: 30 min after injection; for Radioactive accumulation per unit weight of brain, after 60 min.: 60 min after injection; for Clearance of radioactivity from brain (in words): up to 60 min
Method: Using Compounds 1, 2 and 3, a time course change of radioactive accumulation in brain of male Wistar rats (7-week old) was measured.
Compound 1 in 10 mg/mL ascorbic acid-containing physiological saline solution (24 MBq/mL in radioactive concentration), Compound 2 in 10 mg/mL ascorbic acid-containing physiological saline solution (30 MBq/mL in radioactive concentration), Compound 4 in 10 mg/mL ascorbic acid-containing physiological saline solution (32 MBq/mL in radioactive concentration) and Compound 3 in 10 mg/mL ascorbic acid-containing physiological saline solution (30 MBq/mL in radioactive concentration) were prepared to obtain sample solutions. The sample solutions were injected under thiopental anesthesia into the tail vein of the male Wistar rats (7-week old) (dosage: 0.05 mL, dosed radioactivity: 1.2-1.5 MBq equivalent). The rats were sacrificed by bleeding from abdominal artery, and brains were removed and subjected to measurement of mass of brains and further subjected to measurement of radioactivity (hereinafter referred to as A in this Example) with a single channel analyzer (detector type: SP-20 manufactured by OHYO KOKEN KOGYO Co., Ltd.) 2, 5, 30 and 60 minutes after the injection. Further, the radioactivity level of the rest of the whole body was measured in the same manner as above (hereinafter referred to as B in this Example). Using these measurement results, radioactive accumulation per unit weight of brain (% ID/g) at the respective time points of dissection was calculated in accordance with the following formula (2) (Examples 19 to 22).
Separately, [^123I]-IMPY in 10 mg/mL ascorbic acid-containing physiological saline solution (20-30 MBq/mL in radioactive concentration) was prepared, the same operation as above was conducted, and radioactive accumulation per unit weight of brain (% ID/g) at the respective time points of dissection was calculated (Comparative Example 2).
Meanwhile, three animals were used for Examples 19 to 22 and Comparative Example 2 at the respective time points.

[5] = biological target: T1, amyloid in brain (aggregated Aβ1-42 injected into amygdaloid nucleus) (Homo sapiens, UniProt P05067); experiment: Confirmation of imaging of amyloid in brain (autoradiogram of brain slice after tail vein injection, Thioflavin T staining); assay type: in vivo, male Wistar rat; settings: rat
T1 construct: Aβ1-42 (manufactured by Wako); purchased Wako
Method: (1) Aβ1-42 (manufactured by Wako) was dissolved in phosphate buffer (pH 7.4) and shaken at 37° C. for 72 hours, to obtain a 1 mg/mL suspension of aggregated Aβ (hereinafter referred to as amyloid suspension in the Examples).
(2) Under thiopental anesthesia, […] of the amyloid suspension was injected into an amygdaloid nucleus on one side of a male Wistar rat (7-week old). As a control, 2.5 μL of a phosphate buffered physiological saline solution (pH 7.4) was injected into an amygdaloid nucleus on the other side of the rat. The rats were examined 1 day after the injection of the amyloid suspension and the phosphate buffered physiological saline solution (pH 7.4).
(3) Compound 1 in a 10 mg/mL ascorbic acid-containing physiological saline solution (24 MBq/mL in radioactivity concentration), Compound 2 in a 10 mg/mL ascorbic acid-containing physiological saline solution (30 MBq/mL in radioactivity concentration) and Compound 4 in a 10 mg/mL ascorbic acid-containing physiological saline solution (32 MBq/mL in radioactivity concentration) were each prepared to obtain a sample solution. This sample solution was injected under thiopental anesthesia into the rat through the tail vein (dosage: 0.5 mL, dosed radioactivity: 12-15 MBq equivalent).
(4) Brain was removed 60 minutes after the injection to prepare a brain slice of 10 μm in thickness with a microtome (type: CM3050S, manufactured by LEICA). The brain slice was exposed to an imaging plate for 20 hours, and then image analysis was carried out by use of a Bio-imaging Analyzer (type: BAS-2500; manufactured by FUJIFILM Corporation).
(5) After the completion of the image analysis using the Bio-imaging Analyzer, pathological staining with Thioflavin T was carried out to perform imaging by use of a fluorescence microscope (manufactured by NIKON Corporation; type: TE2000-U model; excitation wavelength: 400-440 nm; detection wavelength: 470 nm). Thus, it was confirmed that amyloid was deposited on the slice (FIG. 10b, FIG. 11b and FIG. 12b).
The procedure was conducted in the same manner as in Example 23 except that a solution of Compound 3 in 10 mg/mL ascorbic acid-containing physiological saline solution (32 MBq/mL in radioactive concentration) was used as a sample solution, and a brain was removed 120 minutes after injection of the sample solution.

[6] = brain removed 60 minutes after injection

T1 sequence (P05067 672-713): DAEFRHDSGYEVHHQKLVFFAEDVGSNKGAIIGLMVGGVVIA

| Structure (SMILES) | Result in reverse mutation test [1] | Transfer into brain [2] | Clearance from normal tissues [2] | logD [3] | Radioactive accumulation in brain two minutes after the injection (in words) [4] | Radioactive accumulation per unit weight of brain, after 2 min. [4] | Radioactive accumulation per unit weight of brain, after 5 min. [4] | Radioactive accumulation per unit weight of brain, after 30 min. [4] | Radioactive accumulation per unit weight of brain, after 60 min. [4] | Clearance of radioactivity from brain (in words) [4] | Accumulation at intracerebral amyloid / capability of imaging intracerebral amyloid ([5]; brain removed 120 minutes after injection) | Accumulation at intracerebral amyloid / capability of imaging intracerebral amyloid [5, 6] | logPoctanol value [3] |
| --- | --- | --- | --- | --- | --- | --- | --- | --- | --- | --- | --- | --- | --- |
| CC(=C(C#N)C#N)c1ccc2cc(N(C)CCF)ccc2c1 [FDDNP, 2-(1-{6-[(2-fluoroethyl)(methyl)amino]-2-naphthyl}ethylidene)malononitrile] | positive |  |  |  |  |  |  |  |  |  |  |  |  |
| CN(C)c1ccc(/C=C/c2ccc(I)cc2)cc1 [m-I-SB, (E)-4-dimethylamino-4′-iodostilbene] |  | transferred into brain | insufficient in clearance from normal tissues |  |  |  |  |  |  |  |  |  |  |
| COc1ccc2nc(-c3ccc(OCCF)c([123I])c3)cn2c1 [Compound 3, 2-[4′-(2″-fluoroethoxy)-3′-[^123I]iodophenyl]-6-methoxyimidazo[1,2-a]pyridine] |  |  |  | 2.6 | significant radioactive accumulation | 0.70 % ID/g | 0.53 % ID/g | 0.08 % ID/g | 0.03 % ID/g | tendency to rapidly clear away in 60 minutes | property of accumulating at intracerebral amyloid |  |  |
| Cc1cc2nc(-c3ccc(OCCO)cc3)cn2cc1[123I] [Compound 4, 2-[4′-(2″-hydroxyethoxy)phenyl]-6-[^123I]iodo-7-methylimidazo[1,2-a]pyridine] |  |  |  | 2.7 | significant radioactive accumulation | 0.80 % ID/g | 0.61 % ID/g | 0.12 % ID/g | 0.03 % ID/g | tendency to rapidly clear away in 60 minutes |  | property of accumulating at intracerebral amyloid |  |
| CN(C)c1ccc(-c2nc3ccc(I)cc3s2)cc1 [TZDM, 6-iodo-2-[4′-(N,N-dimethylamino)phenyl]benzothiazole] |  | transferred into brain | insufficient in clearance from normal tissues |  |  |  |  |  |  |  |  |  |  |
| COc1cc(-c2cn3cc([123I])ccc3n2)ccc1OCCF [Compound 2, 2-[4′-(2″-fluoroethoxy)-3′-methoxyphenyl]-6-[^123I]iodoimidazo[1,2-a]pyridine] |  |  |  | 1.8 | significant radioactive accumulation | 0.42 % ID/g | 0.26 % ID/g | 0.04 % ID/g | 0.02 % ID/g | tendency to rapidly clear away in 60 minutes |  | property of accumulating at intracerebral amyloid |  |
| CN(C)c1ccc(-c2cn3cc([123I])ccc3n2)cc1 [[^123I]-IMPY, reference compound] |  |  |  |  |  | 1.19 % ID/g | 0.97 % ID/g | 0.23 % ID/g | 0.09 % ID/g |  |  |  | 1.9 |
| COc1ccc2nc(-c3ccc(OCCCF)c([123I])c3)cn2c1 [Compound 1, 2-[4′-(3″-fluoropropoxy)-3′-[^123I]iodophenyl]-6-methoxyimidazo[1,2-a]pyridine] |  |  |  | 2.3 | significant radioactive accumulation | 0.74 % ID/g | 0.53 % ID/g | 0.11 % ID/g | 0.03 % ID/g | tendency to rapidly clear away in 60 minutes |  | property of accumulating at intracerebral amyloid |  |
| CN(C)c1ccc(-c2nc3ccc(I)cc3o2)cc1 [IBOX, 6-iodo-2-[4′-(N,N-dimethylamino)phenyl]benzoxazole] |  | transferred into brain | insufficient in clearance from normal tissues |  |  |  |  |  |  |  |  |  |  |
